# Assay results reported in PubChem BioAssay (NCI).
#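 The compound was tested at five concentrations on cells cultured in 96-well plates, with a 48-hour exposure period. Abbreviation: GI50, concentration required for 50% inhibition of growth. Definition used: TGI = concentration required for complete inhibition of growth.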 Where a SMILES comes first, the peptide text is derived from it. [ ]: non-standard residue; d: D form. The star is where a group is joined. ξ: configuration not given here. X6 = FC(F)(F)c1cc(NC(=S)*)cc(C(F)(F)F)c1; ξF = NC(Cc1ccccc1)C(=O)O
# System: HCT-15 colon
# Assay: NCI anticancer screen, dose series, 48 h
SMILES,GI50,TGI
OCc1ccc(N2CCC2c2ccc(F)cc2)cc1Cl (stereo not given),21.5 µM,> 100 µM
COC(=O)c1cc2c(n1S(=O)(=O)c1ccc(C)cc1)C(=O)C(=O)c1[nH]cc(C(=O)OCc3ccccc3)c1-2,–,0.256 µM
O=C(Nc1ccccc1OC(F)(F)F)Nc1n[nH]c2ccccc12,36.2 µM,> 100 µM
COC(=O)[C@@H](NC(=O)CNC(=O)[C@H]1CCCN1C(=O)C(Cc1ccccc1)NC(=S)Nc1cc(C(F)(F)F)cc(C(F)(F)F)c1)C(C)C (stereo not given in full) (X6-[ξF][dP]GV-OMe),2.29 µM,5.37 µM

# System: COLO 205 colon
# Assay: NCI anticancer screen, dose series, 48 h
SMILES,GI50,TGI
OCc1ccc(N2CCC2c2ccc(F)cc2)cc1Cl (stereo not given),3.44 µM,15.3 µM
COC(=O)c1cc2c(n1S(=O)(=O)c1ccc(C)cc1)C(=O)C(=O)c1[nH]cc(C(=O)OCc3ccccc3)c1-2,–,0.433 µM
O=C(Nc1ccccc1OC(F)(F)F)Nc1n[nH]c2ccccc12,71.8 µM,> 100 µM
COC(=O)[C@@H](NC(=O)CNC(=O)[C@H]1CCCN1C(=O)C(Cc1ccccc1)NC(=S)Nc1cc(C(F)(F)F)cc(C(F)(F)F)c1)C(C)C (stereo not given in full) (X6-[ξF][dP]GV-OMe),1.87 µM,3.32 µM

# System: NCI-H522 lung
# Assay: NCI anticancer screen, dose series, 48 h
SMILES,GI50,TGI
OCc1ccc(N2CCC2c2ccc(F)cc2)cc1Cl (stereo not given),20.9 µM,55.9 µM
COC(=O)c1cc2c(n1S(=O)(=O)c1ccc(C)cc1)C(=O)C(=O)c1[nH]cc(C(=O)OCc3ccccc3)c1-2,–,0.48 µM
O=C(Nc1ccccc1OC(F)(F)F)Nc1n[nH]c2ccccc12,33.9 µM,> 100 µM
COC(=O)[C@@H](NC(=O)CNC(=O)[C@H]1CCCN1C(=O)C(Cc1ccccc1)NC(=S)Nc1cc(C(F)(F)F)cc(C(F)(F)F)c1)C(C)C (stereo not given in full) (X6-[ξF][dP]GV-OMe),3.04 µM,8.65 µM

# System: SK-OV-3 ovarian
# Assay: NCI anticancer screen, dose series, 48 h
SMILES,GI50,TGI
OCc1ccc(N2CCC2c2ccc(F)cc2)cc1Cl (stereo not given),20.5 µM,> 89.1 µM
COC(=O)c1cc2c(n1S(=O)(=O)c1ccc(C)cc1)C(=O)C(=O)c1[nH]cc(C(=O)OCc3ccccc3)c1-2,–,2.13 µM
O=C(Nc1ccccc1OC(F)(F)F)Nc1n[nH]c2ccccc12,> 100 µM,> 100 µM
COC(=O)[C@@H](NC(=O)CNC(=O)[C@H]1CCCN1C(=O)C(Cc1ccccc1)NC(=S)Nc1cc(C(F)(F)F)cc(C(F)(F)F)c1)C(C)C (stereo not given in full) (X6-[ξF][dP]GV-OMe),2.98 µM,8.26 µM

# System: NCI-H460 lung
# Assay: NCI anticancer screen, dose series, 48 h
SMILES,GI50,TGI
OCc1ccc(N2CCC2c2ccc(F)cc2)cc1Cl (stereo not given),0.511 µM,12.4 µM
COC(=O)c1cc2c(n1S(=O)(=O)c1ccc(C)cc1)C(=O)C(=O)c1[nH]cc(C(=O)OCc3ccccc3)c1-2,–,2.83 µM
O=C(Nc1ccccc1OC(F)(F)F)Nc1n[nH]c2ccccc12,15 µM,> 100 µM
COC(=O)[C@@H](NC(=O)CNC(=O)[C@H]1CCCN1C(=O)C(Cc1ccccc1)NC(=S)Nc1cc(C(F)(F)F)cc(C(F)(F)F)c1)C(C)C (stereo not given in full) (X6-[ξF][dP]GV-OMe),3.39 µM,12 µM

# System: EKVX NSCLC
# Assay: NCI anticancer screen, dose series, 48 h
SMILES,TGI,GI50
COC(=O)c1cc2c(n1S(=O)(=O)c1ccc(C)cc1)C(=O)C(=O)c1[nH]cc(C(=O)OCc3ccccc3)c1-2,0.665 µM,–
O=C(Nc1ccccc1OC(F)(F)F)Nc1n[nH]c2ccccc12,> 100 µM,48.2 µM
COC(=O)[C@@H](NC(=O)CNC(=O)[C@H]1CCCN1C(=O)C(Cc1ccccc1)NC(=S)Nc1cc(C(F)(F)F)cc(C(F)(F)F)c1)C(C)C (stereo not given in full) (X6-[ξF][dP]GV-OMe),22.3 µM,3.12 µM

# System: RXF 393 renal
# Assay: NCI anticancer screen, dose series, 48 h
SMILES,GI50,TGI
OCc1ccc(N2CCC2c2ccc(F)cc2)cc1Cl (stereo not given),11.6 µM,30.4 µM
COC(=O)c1cc2c(n1S(=O)(=O)c1ccc(C)cc1)C(=O)C(=O)c1[nH]cc(C(=O)OCc3ccccc3)c1-2,–,0.824 µM
O=C(Nc1ccccc1OC(F)(F)F)Nc1n[nH]c2ccccc12,24.4 µM,> 100 µM
COC(=O)[C@@H](NC(=O)CNC(=O)[C@H]1CCCN1C(=O)C(Cc1ccccc1)NC(=S)Nc1cc(C(F)(F)F)cc(C(F)(F)F)c1)C(C)C (stereo not given in full) (X6-[ξF][dP]GV-OMe),1.95 µM,3.5 µM

# System: SNB-75 CNS
# Assay: NCI anticancer screen, dose series, 48 h
SMILES,GI50,TGI
OCc1ccc(N2CCC2c2ccc(F)cc2)cc1Cl (stereo not given),20.6 µM,> 100 µM
COC(=O)c1cc2c(n1S(=O)(=O)c1ccc(C)cc1)C(=O)C(=O)c1[nH]cc(C(=O)OCc3ccccc3)c1-2,–,0.3 µM
O=C(Nc1ccccc1OC(F)(F)F)Nc1n[nH]c2ccccc12,17.5 µM,49.8 µM
COC(=O)[C@@H](NC(=O)CNC(=O)[C@H]1CCCN1C(=O)C(Cc1ccccc1)NC(=S)Nc1cc(C(F)(F)F)cc(C(F)(F)F)c1)C(C)C (stereo not given in full) (X6-[ξF][dP]GV-OMe),1.52 µM,3.49 µM

# System: HL-60(TB) leukemia
# Assay: NCI anticancer screen, dose series, 48 h
SMILES,GI50,TGI
OCc1ccc(N2CCC2c2ccc(F)cc2)cc1Cl (stereo not given),18.5 µM,51.8 µM
O=C(Nc1ccccc1OC(F)(F)F)Nc1n[nH]c2ccccc12,17.9 µM,> 100 µM
COC(=O)[C@@H](NC(=O)CNC(=O)[C@H]1CCCN1C(=O)C(Cc1ccccc1)NC(=S)Nc1cc(C(F)(F)F)cc(C(F)(F)F)c1)C(C)C (stereo not given in full) (X6-[ξF][dP]GV-OMe),3.58 µM,12.7 µM

# System: DU-145 prostate
# Assay: NCI anticancer screen, dose series, 48 h
SMILES,GI50,TGI
OCc1ccc(N2CCC2c2ccc(F)cc2)cc1Cl (stereo not given),35.8 µM,> 100 µM
COC(=O)c1cc2c(n1S(=O)(=O)c1ccc(C)cc1)C(=O)C(=O)c1[nH]cc(C(=O)OCc3ccccc3)c1-2,–,0.276 µM
O=C(Nc1ccccc1OC(F)(F)F)Nc1n[nH]c2ccccc12,51.7 µM,> 100 µM
COC(=O)[C@@H](NC(=O)CNC(=O)[C@H]1CCCN1C(=O)C(Cc1ccccc1)NC(=S)Nc1cc(C(F)(F)F)cc(C(F)(F)F)c1)C(C)C (stereo not given in full) (X6-[ξF][dP]GV-OMe),4.85 µM,20.8 µM

# System: SF-539 CNS
# Assay: NCI anticancer screen, dose series, 48 h
SMILES,GI50,TGI
OCc1ccc(N2CCC2c2ccc(F)cc2)cc1Cl (stereo not given),33.5 µM,> 71 µM
COC(=O)c1cc2c(n1S(=O)(=O)c1ccc(C)cc1)C(=O)C(=O)c1[nH]cc(C(=O)OCc3ccccc3)c1-2,–,0.311 µM
O=C(Nc1ccccc1OC(F)(F)F)Nc1n[nH]c2ccccc12,30.5 µM,> 100 µM
COC(=O)[C@@H](NC(=O)CNC(=O)[C@H]1CCCN1C(=O)C(Cc1ccccc1)NC(=S)Nc1cc(C(F)(F)F)cc(C(F)(F)F)c1)C(C)C (stereo not given in full) (X6-[ξF][dP]GV-OMe),2.06 µM,3.94 µM

# System: A549 NSCLC
# Assay: NCI anticancer screen, dose series, 48 h
SMILES,GI50,TGI
OCc1ccc(N2CCC2c2ccc(F)cc2)cc1Cl (stereo not given),7.44 µM,64 µM
COC(=O)c1cc2c(n1S(=O)(=O)c1ccc(C)cc1)C(=O)C(=O)c1[nH]cc(C(=O)OCc3ccccc3)c1-2,–,0.351 µM
O=C(Nc1ccccc1OC(F)(F)F)Nc1n[nH]c2ccccc12,15.7 µM,60.1 µM
COC(=O)[C@@H](NC(=O)CNC(=O)[C@H]1CCCN1C(=O)C(Cc1ccccc1)NC(=S)Nc1cc(C(F)(F)F)cc(C(F)(F)F)c1)C(C)C (stereo not given in full) (X6-[ξF][dP]GV-OMe),3.03 µM,14.4 µM

# System: SR leukemia
# Assay: NCI anticancer screen, dose series, 48 h
SMILES,GI50,TGI
OCc1ccc(N2CCC2c2ccc(F)cc2)cc1Cl (stereo not given),22.6 µM,54.8 µM
COC(=O)c1cc2c(n1S(=O)(=O)c1ccc(C)cc1)C(=O)C(=O)c1[nH]cc(C(=O)OCc3ccccc3)c1-2,–,0.802 µM
O=C(Nc1ccccc1OC(F)(F)F)Nc1n[nH]c2ccccc12,0.0489 µM,24 µM
COC(=O)[C@@H](NC(=O)CNC(=O)[C@H]1CCCN1C(=O)C(Cc1ccccc1)NC(=S)Nc1cc(C(F)(F)F)cc(C(F)(F)F)c1)C(C)C (stereo not given in full) (X6-[ξF][dP]GV-OMe),2.57 µM,8.58 µM

# System: 786-0 renal
# Assay: NCI anticancer screen, dose series, 48 h
SMILES,GI50,TGI
OCc1ccc(N2CCC2c2ccc(F)cc2)cc1Cl (stereo not given),22.6 µM,> 61.5 µM
COC(=O)c1cc2c(n1S(=O)(=O)c1ccc(C)cc1)C(=O)C(=O)c1[nH]cc(C(=O)OCc3ccccc3)c1-2,–,1.07 µM
O=C(Nc1ccccc1OC(F)(F)F)Nc1n[nH]c2ccccc12,38.7 µM,> 100 µM
COC(=O)[C@@H](NC(=O)CNC(=O)[C@H]1CCCN1C(=O)C(Cc1ccccc1)NC(=S)Nc1cc(C(F)(F)F)cc(C(F)(F)F)c1)C(C)C (stereo not given in full) (X6-[ξF][dP]GV-OMe),2.12 µM,4.34 µM

# System: UACC-62 melanoma
# Assay: NCI anticancer screen, dose series, 48 h
SMILES,GI50,TGI
OCc1ccc(N2CCC2c2ccc(F)cc2)cc1Cl (stereo not given),0.397 µM,6.95 µM
COC(=O)c1cc2c(n1S(=O)(=O)c1ccc(C)cc1)C(=O)C(=O)c1[nH]cc(C(=O)OCc3ccccc3)c1-2,–,0.138 µM
O=C(Nc1ccccc1OC(F)(F)F)Nc1n[nH]c2ccccc12,31.7 µM,> 100 µM
